Assay results as given in PubChem BioAssay (NCI).
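1) Cells in 96-well plates. 2) Compound, 48 h, 5 concentrations. 3) Linear interpolation between surrounding doses. 4) Unreached endpoint = highest concentration. At the TGI there is no net growth.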

Tests used:
Test in all cases: NCI anticancer screen, dose series, 48 h
NCI-H460 lung = test system: NCI-H460 lung
MDA-N = test system: MDA-N
MDA-MB-435 = test system: MDA-MB-435
COLO 205 colon = test system: COLO 205 colon
HS 578T breast = test system: HS 578T breast
SW-620 colon = test system: SW-620 colon
OVCAR-8 ovarian = test system: OVCAR-8 ovarian
OVCAR-5 ovarian = test system: OVCAR-5 ovarian
EKVX NSCLC = test system: EKVX NSCLC
HL-60(TB) leukemia = test system: HL-60(TB) leukemia
TK-10 renal = test system: TK-10 renal
T-47D breast = test system: T-47D breast
A549 NSCLC = test system: A549 NSCLC
SK-OV-3 ovarian = test system: SK-OV-3 ovarian
CCRF-CEM leukemia = test system: CCRF-CEM leukemia
HT29 colon = test system: HT29 colon
SNB-19 CNS = test system: SNB-19 CNS
SNB-75 CNS = test system: SNB-75 CNS
SK-MEL-2 melanoma = test system: SK-MEL-2 melanoma
ACHN renal = test system: ACHN renal
NCI-H23 lung = test system: NCI-H23 lung
CAKI-1 renal = test system: CAKI-1 renal
RXF 393 renal = test system: RXF 393 renal
U251 CNS = test system: U251 CNS
SN12C renal = test system: SN12C renal
KM12 colon = test system: KM12 colon
A498 renal = test system: A498 renal
SK-MEL-5 melanoma = test system: SK-MEL-5 melanoma
UACC-62 melanoma = test system: UACC-62 melanoma
OVCAR-4 ovarian = test system: OVCAR-4 ovarian
OVCAR-3 ovarian = test system: OVCAR-3 ovarian
UACC-257 melanoma = test system: UACC-257 melanoma
IGROV1 ovarian = test system: IGROV1 ovarian
HOP-92 NSCLC = test system: HOP-92 NSCLC
NCI-H522 lung = test system: NCI-H522 lung
PC-3 prostate = test system: PC-3 prostate
SK-MEL-28 melanoma = test system: SK-MEL-28 melanoma
M14 melanoma = test system: M14 melanoma
SF-539 CNS = test system: SF-539 CNS
HCC-2998 colon = test system: HCC-2998 colon
HCT-15 colon = test system: HCT-15 colon
786-0 renal = test system: 786-0 renal
NCI-H226 lung = test system: NCI-H226 lung
MALME-3M melanoma = test system: MALME-3M melanoma
NCI/ADR-RES ovarian = test system: NCI/ADR-RES ovarian
SF-295 CNS = test system: SF-295 CNS
DU-145 prostate = test system: DU-145 prostate
BT-549 breast = test system: BT-549 breast
MDA-MB-231 breast = test system: MDA-MB-231 breast
SF-268 CNS = test system: SF-268 CNS
HOP-62 NSCLC = test system: HOP-62 NSCLC
MCF7 breast = test system: MCF7 breast
RPMI-8226 leukemia = test system: RPMI-8226 leukemia
HCT-116 colon = test system: HCT-116 colon
SR leukemia = test system: SR leukemia
MOLT-4 leukemia = test system: MOLT-4 leukemia
LOX IMVI melanoma = test system: LOX IMVI melanoma
K-562 leukemia = test system: K-562 leukemia

N=c1c2c(=S)n(-c3ccccc3)c(=S)n(-c3ccccc3)c2nc(SCCCN2CCCCC2)n1-c1ccccc1
TGI (NCI-H460 lung): 4.3 µM | TGI (MDA-N): 3.33 µM | TGI (MDA-MB-435): 3.14 µM | TGI (COLO 205 colon): 3.19 µM | TGI (HS 578T breast): > 100 µM | TGI (SW-620 colon): 5.15 µM | TGI (OVCAR-8 ovarian): 3.36 µM | TGI (OVCAR-5 ovarian): 26.2 µM | TGI (EKVX NSCLC): 3.47 µM | TGI (HL-60(TB) leukemia): 3.81 µM | TGI (TK-10 renal): 3.08 µM | TGI (T-47D breast): 5.78 µM | TGI (A549 NSCLC): 3.78 µM | TGI (SK-OV-3 ovarian): 5.34 µM | TGI (CCRF-CEM leukemia): 1.41 µM | TGI (HT29 colon): 4.32 µM | TGI (SNB-19 CNS): 9.41 µM | TGI (SNB-75 CNS): 3.28 µM | TGI (SK-MEL-2 melanoma): 3.77 µM | TGI (ACHN renal): 3.08 µM | TGI (NCI-H23 lung): 3.37 µM | TGI (CAKI-1 renal): 3.15 µM | TGI (RXF 393 renal): 3.26 µM | TGI (U251 CNS): 3.12 µM | TGI (SN12C renal): 3.28 µM | TGI (KM12 colon): 3.44 µM | TGI (A498 renal): 7.11 µM | TGI (SK-MEL-5 melanoma): 3.63 µM | TGI (UACC-62 melanoma): 3.03 µM | TGI (OVCAR-4 ovarian): 3.23 µM | TGI (OVCAR-3 ovarian): 3.02 µM | TGI (UACC-257 melanoma): 3.31 µM | TGI (IGROV1 ovarian): 3.09 µM | TGI (HOP-92 NSCLC): 3.28 µM | TGI (NCI-H522 lung): 2.54 µM | TGI (PC-3 prostate): 3.03 µM | TGI (SK-MEL-28 melanoma): 5.1 µM | TGI (M14 melanoma): 3.1 µM | TGI (SF-539 CNS): 16.7 µM | TGI (HCC-2998 colon): 2.82 µM | TGI (HCT-15 colon): 3.23 µM | TGI (786-0 renal): 2.28 µM | TGI (NCI-H226 lung): 6.84 µM | TGI (MALME-3M melanoma): 3.31 µM | TGI (NCI/ADR-RES ovarian): 8.97 µM | TGI (SF-295 CNS): 12.6 µM | TGI (DU-145 prostate): 3.03 µM | TGI (BT-549 breast): 3.41 µM | TGI (MDA-MB-231 breast): 3.05 µM | TGI (SF-268 CNS): 3.55 µM | TGI (HOP-62 NSCLC): 3.38 µM | TGI (MCF7 breast): 1.3 µM | TGI (RPMI-8226 leukemia): > 100 µM | TGI (HCT-116 colon): 3.1 µM

COc1ccc2c(N=[N+]=[N-])c(-c3ccccc3)c(=O)oc2c1
TGI (SR leukemia): 67.1 µM | TGI (NCI-H460 lung): > 100 µM | TGI (MDA-N): > 100 µM | TGI (MOLT-4 leukemia): 73.1 µM | TGI (MDA-MB-435): > 100 µM | TGI (COLO 205 colon): > 100 µM | TGI (HS 578T breast): > 100 µM | TGI (SW-620 colon): > 100 µM | TGI (OVCAR-8 ovarian): > 100 µM | TGI (EKVX NSCLC): > 100 µM | TGI (HL-60(TB) leukemia): 60.3 µM | TGI (TK-10 renal): > 100 µM | TGI (T-47D breast): > 100 µM | TGI (A549 NSCLC): > 100 µM | TGI (LOX IMVI melanoma): > 100 µM | TGI (SK-OV-3 ovarian): > 100 µM | TGI (CCRF-CEM leukemia): > 100 µM | TGI (HT29 colon): > 100 µM | TGI (SNB-75 CNS): > 100 µM | TGI (ACHN renal): > 100 µM | TGI (NCI-H23 lung): > 100 µM | TGI (CAKI-1 renal): > 100 µM | TGI (SN12C renal): > 100 µM | TGI (KM12 colon): > 100 µM | TGI (A498 renal): > 100 µM | TGI (SK-MEL-5 melanoma): 77.3 µM | TGI (UACC-62 melanoma): > 100 µM | TGI (UACC-257 melanoma): 85.6 µM | TGI (IGROV1 ovarian): > 100 µM | TGI (NCI-H522 lung): > 100 µM | TGI (PC-3 prostate): > 100 µM | TGI (SK-MEL-28 melanoma): > 100 µM | TGI (M14 melanoma): > 100 µM | TGI (SF-539 CNS): > 100 µM | TGI (HCC-2998 colon): > 100 µM | TGI (HCT-15 colon): > 100 µM | TGI (K-562 leukemia): > 100 µM | TGI (786-0 renal): > 100 µM | TGI (MALME-3M melanoma): > 100 µM | TGI (SF-295 CNS): > 100 µM | TGI (DU-145 prostate): > 100 µM | TGI (BT-549 breast): > 100 µM | TGI (MDA-MB-231 breast): > 100 µM | TGI (SF-268 CNS): > 100 µM | TGI (HOP-62 NSCLC): > 100 µM | TGI (MCF7 breast): > 100 µM | TGI (RPMI-8226 leukemia): > 100 µM | TGI (HCT-116 colon): > 100 µM

O=c1cc(N2CCOCC2)[nH]c(=O)n1-c1cccc(Cl)c1
TGI (NCI-H460 lung): > 100 µM | TGI (MDA-N): > 100 µM | TGI (MOLT-4 leukemia): > 100 µM | TGI (MDA-MB-435): > 100 µM | TGI (COLO 205 colon): > 100 µM | TGI (HS 578T breast): > 100 µM | TGI (SW-620 colon): > 100 µM | TGI (OVCAR-8 ovarian): > 100 µM | TGI (OVCAR-5 ovarian): > 100 µM | TGI (EKVX NSCLC): > 100 µM | TGI (HL-60(TB) leukemia): > 100 µM | TGI (TK-10 renal): > 100 µM | TGI (T-47D breast): > 100 µM | TGI (LOX IMVI melanoma): > 100 µM | TGI (SK-OV-3 ovarian): > 100 µM | TGI (CCRF-CEM leukemia): > 100 µM | TGI (HT29 colon): > 100 µM | TGI (SNB-19 CNS): > 100 µM | TGI (SNB-75 CNS): > 100 µM | TGI (SK-MEL-2 melanoma): > 100 µM | TGI (ACHN renal): > 100 µM | TGI (NCI-H23 lung): > 100 µM | TGI (CAKI-1 renal): > 100 µM | TGI (RXF 393 renal): > 100 µM | TGI (U251 CNS): > 100 µM | TGI (SN12C renal): > 100 µM | TGI (KM12 colon): > 100 µM | TGI (A498 renal): > 100 µM | TGI (UACC-62 melanoma): > 100 µM | TGI (OVCAR-4 ovarian): > 100 µM | TGI (OVCAR-3 ovarian): > 100 µM | TGI (UACC-257 melanoma): > 100 µM | TGI (IGROV1 ovarian): > 100 µM | TGI (HOP-92 NSCLC): > 100 µM | TGI (NCI-H522 lung): > 100 µM | TGI (PC-3 prostate): > 100 µM | TGI (SK-MEL-28 melanoma): > 100 µM | TGI (M14 melanoma): > 100 µM | TGI (SF-539 CNS): > 100 µM | TGI (HCC-2998 colon): > 100 µM | TGI (HCT-15 colon): > 100 µM | TGI (K-562 leukemia): > 100 µM | TGI (786-0 renal): > 100 µM | TGI (NCI-H226 lung): > 100 µM | TGI (MALME-3M melanoma): > 100 µM | TGI (NCI/ADR-RES ovarian): > 100 µM | TGI (SF-295 CNS): > 100 µM | TGI (DU-145 prostate): > 100 µM | TGI (BT-549 breast): > 100 µM | TGI (MDA-MB-231 breast): > 100 µM | TGI (SF-268 CNS): > 100 µM | TGI (HOP-62 NSCLC): > 100 µM | TGI (MCF7 breast): > 100 µM | TGI (RPMI-8226 leukemia): > 100 µM | TGI (HCT-116 colon): > 100 µM
